# In patent publication US20240067662A1, “KRAS INHIBITORS” (Bristol-Myers Squibb Company, priority 2022, published 2024):
# Target: GMPPNP-loaded KRAS G12C (Homo sapiens, UniProt P01116, G12C)
# Experiment: KRAS G12C RAF Disruption Assay (HTRF)
# Type: biochemical
# Conditions: recombinant GMPPNP-loaded KRAS G12C (5 nM), 20 min with compound; GST-RAF1 RBD (9 nM); HTRF signal; read-out: KRASG12C RAF Disruption Assay (IC50)
# Experimental: KRAS^G12C RAF Disruption Assay
# This is a functional assay that measures activity of compounds against KRAS-G12C^(ON), i.e., the active form of KRAS G12C. Recombinant GMPPNP-loaded KRAS G12C (5 nM) was treated with compound at room temperature for 20 minutes in assay buffer (50 mM Tris pH 7.5, 100 mM NaCl, 1 mM MgCl2, 1 mM DTT, 100ug/ml BSA). Recombinant GST-RAF1 RBD (9 nM) was added, and the reaction mixture was incubated for 20 minutes. SA-Tb (0.25 nM) was added, and the reaction mixture was incubated for 3 hours. HTRF signal was measured (PerkinElmer Envision), the signal ratio (λem 520/λem 495) was calculated, and IC50 values were calculated from the dose-response curve.
# Chain of GMPPNP-loaded KRAS G12C (P01116 1-188 isoform P01116-2 G12C): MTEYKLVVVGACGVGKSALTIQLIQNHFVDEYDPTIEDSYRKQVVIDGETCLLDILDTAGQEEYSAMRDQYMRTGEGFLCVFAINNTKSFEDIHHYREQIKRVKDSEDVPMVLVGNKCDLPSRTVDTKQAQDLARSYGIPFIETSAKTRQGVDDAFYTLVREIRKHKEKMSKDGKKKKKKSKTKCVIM
row,IC50,Structure (SMILES)
1,260 nM,"C#Cc1c(F)ccc2cc(O)cc(-c3ncc4c(N5C[C@H]6CC[C@@H](C5)N6C(=O)/C(F)=C/c5ncco5)nc(OC[C@@]56CCCN5C[C@H](F)C6)nc4c3F)c12 [Compound 4, (Z)-1-((1R, 5S)-3-(7-(8-ethynyl-7-fluoro-3-hydroxynaphthalen-1-yl)-8-fluoro-2-(((2R, 7aS)-2-fluorotetrahydro-1H-pyrrolizin-7a(5H)-yl)methoxy)pyrido[4,3-d]pyrimidin-4-yl)-3,8-diazabicyclo[3.2.1]octan-8-yl)-2-fluoro-3-(oxazol-2-yl)prop-2-en-1-one]"
2,2600 nM,"C#Cc1c(F)ccc2cc(O)cc(-c3ncc4c(N5C[C@H]6CC[C@@H](C5)N6C(=O)/C(F)=C/c5cccc(OC)n5)nc(OC[C@@]56CCCN5C[C@H](F)C6)nc4c3F)c12 [Compound 17, (Z)-1-((1R, 5S)-3-(7-(8-ethynyl-7-fluoro-3-hydroxynaphthalen-1-yl)-8-fluoro-2-(((2R, 7aS)-2-fluorotetrahydro-1H-pyrrolizin-7a(5H)-yl)methoxy)pyrido[4,3-d]pyrimidin-4-yl)-3,8-diazabicyclo[3.2.1]octan-8-yl)-2-fluoro-3-(6-methoxypyridin-2-yl)prop-2-en-1-one]"
3,9700 nM,"C#Cc1cccc2cccc(-c3ncc4c(N5CCC6(CCN6C(=O)/C(F)=C/c6ncccn6)C5)nc(OC[C@@]56CCCN5C[C@H](F)C6)nc4c3F)c12 (single isomer, unassigned) [Compound 105]"
4,75 nM,"N#CC[C@H]1CN(c2nc(OC[C@@]34CCCN3C[C@H](F)C4)nc3c(F)c(-c4ccccc4C(F)(F)F)ncc23)CCN1C(=O)/C(F)=C/c1ccccn1 [Example 33, 2-((S)-4-(8-fluoro-2-(((2R, 7aS)-2-fluorotetrahydro-1H-pyrrolizin-7a(5H)-yl)methoxy)-7-(2-(trifluoromethyl)phenyl)pyrido[4,3-d]pyrimidin-4-yl)-1-((Z)-2-fluoro-3-(pyridin-2-yl)acryloyl)piperazin-2-yl)acetonitrile]"
5,180 nM,"N#CC[C@H]1CN(c2nc(OC[C@@]34CCCN3C[C@H](F)C4)nc3c(F)c(N4CCOc5cccc(F)c54)ncc23)CCN1C(=O)/C(F)=C/c1ccccn1 [Example 60, 2-((S)-1-((Z)-2-fluoro-3-(pyridin-2-yl)acryloyl)-4-(8-fluoro-7-(5-fluoro-2,3-dihydro-4H-benzo[b][1,4]oxazin-4-yl)-2-(((2R, 7aS)-2-fluorotetrahydro-1H-pyrrolizin-7a(5H)-yl)methoxy)pyrido[4,3-d]pyrimidin-4-yl)piperazin-2-yl)acetonitrile]"
6,1000 nM,"C#Cc1cccc2cccc(-c3ncc4c(N(C)C5CCN(C(=O)/C(F)=C/c6ccccn6)C5C)nc(OC[C@@]56CCCN5C[C@H](F)C6)nc4c3F)c12 (single isomer, unassigned) [Example 74 cis isomer 1]"
7,57 nM,"N#CC[C@H]1CN(c2nc(OC[C@@]34CCCN3C[C@H](F)C4)nc3c(F)c(-c4ccccc4C4CCC4)ncc23)CCN1C(=O)/C(F)=C/c1ccccn1 [Compound 81, 2-((2S)-4-(7-(2-cyclobutylphenyl)-8-fluoro-2-(((2R, 7aS)-2-fluorotetrahydro-1H-pyrrolizin-7a(5H)-yl)methoxy)pyrido[4,3-d]pyrimidin-4-yl)-1-((Z)-2-fluoro-3-(pyridin-2-yl)acryloyl)piperazin-2-yl)acetonitrile]"
8,44 nM,"C#Cc1c(F)ccc2cccc(-c3ncc4c(N5CCN(C(=O)/C(F)=C/c6nccs6)CC5)nc(OC[C@@]56CCCN5C[C@H](F)C6)nc4c3F)c12 [Example 53, (Z)-1-(4-(7-(8-ethynyl-7-fluoronaphthalen-1-yl)-8-fluoro-2-(((2R, 7aS)-2-fluorotetrahydro-1H-pyrrolizin-7a(5H)-yl)methoxy)pyrido[4,3-d]pyrimidin-4-yl)piperazin-1-yl)-2-fluoro-3-(thiazol-2-yl)prop-2-en-1-one]"
9,79 nM,"C#Cc1c(F)ccc2cc(O)cc(-c3ncc4c(N5C[C@H]6CC[C@@H](C5)N6C(=O)/C(F)=C/c5nccn5C)nc(OC[C@@]56CCCN5C[C@H](F)C6)nc4c3F)c12 [Compound 5, (Z)-1-((1R, 5S)-3-(7-(8-ethynyl-7-fluoro-3-hydroxynaphthalen-1-yl)-8-fluoro-2-(((2R, 7aS)-2-fluorotetrahydro-1H-pyrrolizin-7a(5H)-yl)methoxy)pyrido[4,3-d]pyrimidin-4-yl)-3,8-diazabicyclo[3.2.1]octan-8-yl)-2-fluoro-3-(1-methyl-1H-imidazol-2-yl)prop-2-en-1-one]"
10,1600 nM,"C#Cc1cccc2cccc(-c3ncc4c(N(C)C5CCN(C(=O)/C(F)=C/c6nccs6)C5C)nc(OC[C@@]56CCCN5C[C@H](F)C6)nc4c3F)c12 (single isomer, unassigned) [Example 73 trans isomer 1]"
11,34 nM,"N#CC[C@H]1CN(c2nc(OC[C@@]34CCCN3C[C@H](F)C4)nc3c(F)c(-c4cc(O)ccc4C(F)(F)F)ncc23)CCN1C(=O)/C(F)=C/c1ccccn1 [Compound 94, 2-((S)-4-(8-fluoro-2-(((2R, 7aS)-2-fluorotetrahydro-1H-pyrrolizin-7a(5H)-yl)methoxy)-7-(5-hydroxy-2-(trifluoromethyl)phenyl)pyrido[4,3-d]pyrimidin-4-yl)-1-((Z)-2-fluoro-3-(pyridin-2-yl)acryloyl)piperazin-2-yl)acetonitrile]"
12,41 nM,"Nc1nc2c(-c3ncc4c(N5CCN(C(=O)/C(F)=C/c6nccs6)CC5)nc(OC[C@@]56CCCN5C[C@H](F)C6)nc4c3F)c(F)cc(F)c2s1 [Example 67, (Z)-1-(4-(7-(2-amino-5,7-difluorobenzo[d]thiazol-4-yl)-8-fluoro-2-(((2R, 7aS)-2-fluorotetrahydro-1H-pyrrolizin-7a(5H)-yl)methoxy)pyrido[4,3-d]pyrimidin-4-yl)piperazin-1-yl)-2-fluoro-3-(thiazol-2-yl)prop-2-en-1-one]"
13,719 nM,"CN(c1nc(OC[C@@]23CCCN2C[C@H](F)C3)nc2c(F)c(-c3cccc4cccc(C#N)c34)ncc12)[C@@H]1CCN(C(=O)/C(F)=C/c2nccs2)C1 [Compound 114, 8-(8-fluoro-4-(((R)-1-((Z)-2-fluoro-3-(thiazol-2-yl)acryloyl)pyrrolidin-3-yl)(methyl)amino)-2-(((2R, 7aS)-2-fluorotetrahydro-1H-pyrrolizin-7a(5H)-yl)methoxy)pyrido[4,3-d]pyrimidin-7-yl)-1-naphthonitrile]"
14,110 nM,"C#Cc1cccc2cccc(-c3ncc4c(N5CC[C@@H]6CN(C(=O)/C(F)=C/c7ccccn7)C[C@@H]65)nc(OC[C@@]56CCCN5C[C@H](F)C6)nc4c3F)c12 [Compound 85, (Z)-1-((3aR, 6aR)-1-(7-(8-ethynylnaphthalen-1-yl)-8-fluoro-2-(((2R, 7aS)-2-fluorotetrahydro-1H-pyrrolizin-7a(5H)-yl)methoxy)pyrido[4,3-d]pyrimidin-4-yl)hexahydropyrrolo[3,4-b]pyrrol-5(1H)-yl)-2-fluoro-3-(pyridin-2-yl)prop-2-en-1-one]"
15,1300 nM,"C#Cc1c(F)ccc2cc(O)cc(-c3ncc4c(N5CC6CCC(C5)N6C(=O)/C(Cl)=C/c5ccccn5)nc(OC[C@@]56CCCN5C[C@H](F)C6)nc4c3F)c12 [Compound 8, (Z)-1-((1R, 5S)-3-(7-(8-ethynyl-7-fluoro-3-hydroxynaphthalen-1-yl)-8-fluoro-2-(((2R, 7aS)-2-fluorotetrahydro-1H-pyrrolizin-7a(5H)-yl)methoxy)pyrido[4,3-d]pyrimidin-4-yl)-3,8-diazabicyclo[3.2.I]octan-8-yl)-2-chloro-3-(pyridin-yl)prop-2-en-1-one]"
16,1800 nM,"C#Cc1cccc2cccc(-c3ncc4c(N(C)C5CCN(C(=O)/C(F)=C/c6nccs6)C5C)nc(OC[C@@]56CCCN5C[C@H](F)C6)nc4c3F)c12 (single isomer, unassigned) [Example 73 cis isomer 2]"
17,170 nM,"C#Cc1c(F)ccc2cc(O)cc(-c3ncc4c(N5C[C@H]6CC[C@@H](C5)N6C(=O)/C(F)=C/c5cncc(C)n5)nc(OC[C@@]56CCCN5C[C@H](F)C6)nc4c3F)c12 [Example 26, (Z)-1-((1R, 5S)-3-(7-(8-ethynyl-7-fluoro-3-hydroxynaphthalen-1-yl)-8-fluoro-2-(((2R, 7aS)-2-fluorotetrahydro-1H-pyrrolizin-7a(5H)-yl)methoxy)pyrido[4,3-d]pyrimidin-4-yl)-3,8-diazabicyclo[3.2.1]octan-8-yl)-2-fluoro-3-(6-methylpyrazin-2-yl)prop-2-en-1-one]"
18,6 nM,"N#Cc1c(N)sc2c(F)ccc(-c3ncc4c(N5CCN(C(=O)/C(F)=C/c6nccs6)CC5)nc(OC[C@@]56CCCN5C[C@H](F)C6)nc4c3F)c12 [Compound 122, 2-amino-7-fluoro-4-(8-fluoro-4-(4-((Z)-2-fluoro-3-(thiazol-2-yl)acryloyl)piperazin-1-yl)-2-(((7aS)-2-fluorotetrahydro-1H-pyrrolizin-7a(5H)-yl)methoxy)pyrido[4,3-d]pyrimidin-7-yl)benzo[b]thiophene-3-carbonitrile]"
19,440 nM,"N#CC[C@H]1CN(c2nc(OC[C@@]34CCCN3C[C@H](F)C4)nc3c(F)c(-c4cccc(O)c4)ncc23)CCN1C(=O)/C(F)=C/c1nccs1 [Example 72, 2-((S)-4-(8-fluoro-2-(((2R, 7aS)-2-fluorotetrahydro-1H-pyrrolizin-7a(5H)-yl)methoxy)-7-(3-hydroxyphenyl)pyrido[4,3-d]pyrimidin-4-yl)-1-((Z)-2-fluoro-3-(thiazol-2-yl)acryloyl)piperazin-2-yl)acetonitrile]"
